{"source": "patent US20240180793A1", "about": "“CORE STICK-TYPE OIL DISPERSION SOLID COSMETIC COMPOSITION HAVING IMPROVED SPREADABILITY” (COSMAX, INC., priority 2021, published 2024)", "target": "mushroom tyrosinase", "test": "Mushroom tyrosinase inhibition assay (whitening effect)", "type": "biochemical", "conditions": "mushroom tyrosinase 1000 units/mL, L-tyrosine, pH 6.5, 25° C. for 30 minutes, absorbance at 490 nm", "description": "Then, the absorbance was recorded at 490 nm by a microplate reader to determine the amount of dopachrome generated. […] The expression of the percentage of tyrosinase activity inhibition is as follows.\nTyrosinase activity inhibitory effect (%)=(1−(A−B)/C)×100 [Equation] • A: Absorbance of sample • B: Absorbance of color control • C: Absorbance of control"}
{"smiles": "OC[C@H]1O[C@@H](Oc2ccc(O)cc2)[C@H](O)[C@@H](O)[C@@H]1O", "note": "[Arbutin]", "values": [{"measurement": "IC50 (tyrosinase activity inhibition)", "result": 630.1, "unit": "µg/mL"}]}
